In patent publication US20150218172A1, “Pyrrolo[2,3-D]Pyrimidine Tropomyosin-Related Kinase Inhibitors” (PFIZER LIMITED, priority 2012, published 2015):
pIC50: −log10 of the molar value.

biological target: T1, TrkA (Homo sapiens, UniProt P04629); experiment: Isolated TRK enzyme assay (HTRF KinEASE-TK kit), PV3144 TrkA enzyme assay; type: biochemical; details: PV3144 TrkA enzyme assay, recombinant His-tagged cytoplasmic domain aa 441-796, 4 nM enzyme, 40 uM ATP; arithmetic mean where more than one reading; read-out: Trka enzyme (IC50)
T1 construct: aa 441-796; His; purchased Invitrogen PV3144
T1 sequence (P04629 441-796): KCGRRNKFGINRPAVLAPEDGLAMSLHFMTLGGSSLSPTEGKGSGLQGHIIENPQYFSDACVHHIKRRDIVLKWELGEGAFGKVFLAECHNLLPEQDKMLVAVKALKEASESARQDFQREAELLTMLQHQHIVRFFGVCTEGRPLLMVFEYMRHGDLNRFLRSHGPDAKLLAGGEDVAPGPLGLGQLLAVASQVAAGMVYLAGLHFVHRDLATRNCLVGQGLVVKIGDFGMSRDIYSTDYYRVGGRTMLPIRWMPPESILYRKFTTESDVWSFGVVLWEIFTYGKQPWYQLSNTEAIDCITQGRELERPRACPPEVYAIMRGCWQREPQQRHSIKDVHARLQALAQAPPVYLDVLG
Summary of the method: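 Recombinant His-tagged cytoplasmic domain of human TrkA, preactivated with ATP for 20 min, then 20 min with compound before biotinylated TK substrate (1 uM final) at room temperature. HTRF read at 665/620 nm; % inhibition normalised to reference-compound and DMSO controls, IC50 from sigmoid fit, mean of replicates.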

| SMILES | pIC50 |
| --- | --- |
| Cc1cc(C)n(CC(=O)Nc2cc(C(=O)c3cn(CCO)c4ncncc34)ccn2)n1 [Example 139, 2-(3,5-dimethyl-1H-pyrazol-1-yl)-N-(4-{[7-(2-hydroxyethyl)-7H-pyrrolo[2,3-d]pyrimidin-5-yl]carbonyl}pyridin-2-yl)acetamide] | 6.12 |
| C[C@H](CO)n1cc(C(=O)c2cc(NC(=O)Cc3ccc(Cl)cc3)ccn2)c2cncnc21 [Example 28, 2-(4-chlorophenyl)-N-[2-({7-[(2R)-1-hydroxypropan-2-yl]-7H-pyrrolo[2,3-d]pyrimidin-5-yl}carbonyl)pyridin-4-yl]acetamide] | 6.95 |
| C[C@H](CO)n1cc(C(=O)c2cc(NC(=O)Cc3ccc(F)cn3)ccn2)c2cncnc21 [Example 27, 2-(5-fluoropyridin-2-yl)-N-[2-({7-[(2R)-1-hydroxypropan-2-yl]-7H-pyrrolo[2,3-d]pyrimidin-5-yl}carbonyl)pyridin-4-yl]acetamide] | 6.86 |
| CC(CO)(CO)n1cc(C(=O)c2cc(NC(=O)Cc3ccc(Cl)cc3)ccn2)c2cncnc21 [Example 102, 2-(4-chlorophenyl)-N-(2-{[7-(1,3-dihydroxy-2-methylpropan-2-yl)-7H-pyrrolo[2,3-d]pyrimidin-5-yl]carbonyl}pyridin-4-yl)acetamide] | 7.02 |
| Cc1cc(C)n(CC(=O)Nc2cc(C(=O)c3cn(CC(C)(C)O)c4ncncc34)ccn2)n1 [Example 127, 2-(3,5-dimethyl-1H-pyrazol-1-yl)-N-(4-{[7-(2-hydroxy-2-methylpropyl)-7H-pyrrolo[2,3-d]pyrimidin-5-yl]carbonyl}pyridin-2-yl)acetamide] | 5.95 |
| N#Cc1ccc(CC(=O)Nc2cc(C(=O)c3cn(C(CO)CO)c4ncncc34)ccn2)cc1 [Example 114, 2-(4-cyanophenyl)-N-(4-{[7-(1,3-dihydroxypropan-2-yl)-7H-pyrrolo[2,3-d]pyrimidin-5-yl]carbonyl}pyridin-2-yl)acetamide] | 6.27 |
| CC(C)n1cc(C(=O)c2cc(NC(=O)Cn3cc(C(F)(F)F)nn3)ccn2)c2cncnc21 [Example 79, N-(2-{[7-(propan-2-yl)-7H-pyrrolo[2,3-d]pyrimidin-5-yl]carbonyl}pyridin-4-yl)-2-[4-(trifluoromethyl)-1H-1,2,3-triazol-1-yl]acetamide] | 6.88 |
| C[C@@H](CO)n1cc(C(=O)c2cc(NC(=O)Cn3ccc(C(F)(F)F)n3)ccn2)c2cncnc21 [Example 14, N-[2-({7-[(2S)-1-hydroxypropan-2-yl]-7H-pyrrolo[2,3-d]pyrimidin-5-yl}carbonyl)pyridin-4-yl]-2-[3-(trifluoromethyl)-1H-pyrazol-1-yl]acetamide] | 6.88 |
| Cc1cc(C(=O)c2cn(C(C)C)c3ncncc23)cc(NC(=O)Cc2ccc(C#N)c(C(F)(F)F)c2)n1 [Example 78, 2-[4-cyano-3-(trifluoromethyl)phenyl]-N-(6-methyl-4-{[7-(propan-2-yl)-7H-pyrrolo[2,3-d]pyrimidin-5-yl]carbonyl}pyridin-2-yl)acetamide] | 6.93 |
| O=C(Cc1ccc(Cl)cc1)Nc1ccnc(C(=O)c2cn(C(CO)CO)c3ncncc23)c1 [Example 92, 2-(4-chlorophenyl)-N-(2-{[7-(1,3-dihydroxypropan-2-yl)-7H-pyrrolo[2,3-d]pyrimidin-5-yl]carbonyl}pyridin-4-yl)acetamide] | 6.13 |
| CC(CO)n1cc(C(=O)c2ccnc(NC(=O)Cc3ccc(C#N)cc3)c2)c2cncnc21 (single isomer, unassigned) [Example 33, 2-(4-cyanophenyl)-N-(4-{[7-(1-hydroxypropan-2-yl)-7H-pyrrolo[2,3-d]pyrimidin-5-yl]carbonyl}pyridin-2-yl)acetamide] | 5.59 |
| O=C(Cc1cccc(OC(F)(F)F)c1)Nc1ccnc(C(=O)c2cn(C(CO)CO)c3ncncc23)c1 [Example 97, N-(2-{[7-(1,3-dihydroxypropan-2-yl)-7H-pyrrolo[2,3-d]pyrimidin-5-yl]carbonyl}pyridin-4-yl)-2-[3-(trifluoromethoxy)phenyl]acetamide] | 6.06 |
| O=C(Cc1ccc(OC(F)(F)F)cc1)Nc1cc(C(=O)c2cn(CCO)c3ncncc23)ccn1 [Example 144, N-(4-{[7-(2-hydroxyethyl)-7H-pyrrolo[2,3-d]pyrimidin-5-yl]carbonyl}pyridin-2-yl)-2-[4-(trifluoromethoxy)phenyl]acetamide] | 6.95 |
| Cc1cc(C)n(CC(=O)Nc2cc(C(=O)c3cn(C(CO)CO)c4ncncc34)ccn2)n1 [Example 112, 2-(3,5-Dimethyl-1H-pyrazol-1-yl)-N-[4-({7-[2-hydroxy-1-(hydroxymethyl)ethyl]-7H-pyrrolo[2,3-d]pyrimidin-5-yl}carbonyl)pyridin-2-yl]acetamide] | 6.17 |
| Cc1cc(C(F)(F)F)nn1CC(=O)Nc1ccnc(C(=O)c2cn([C@H](C)CO)c3ncncc23)c1 [Example 21, N-[2-({7-[(2R)-1-hydroxypropan-2-yl]-7H-pyrrolo[2,3-d]pyrimidin-5-yl}carbonyl)pyridin-4-yl]-2-[5-methyl-3-(trifluoromethyl)-1H-pyrazol-1-yl]acetamide] | 7.02 |
| CC1(n2cc(C(=O)c3cc(NC(=O)Cn4cc(C(F)(F)F)nn4)ccn3)c3cncnc32)COC1 [Example 171, N-(2-{[7-(3-methyloxetan-3-yl)-7H-pyrrolo[2,3-d]pyrimidin-5-yl]carbonyl}pyridin-4-yl)-2-[4-(trifluoromethyl)-1H-1,2,3-triazol-1-yl]acetamide] | 6.59 |

Stronger by pIC50, values ahead:

| pIC50 | SMILES |
| --- | --- |
| 7.05 | C[C@@H](CO)n1cc(C(=O)c2cc(NC(=O)Cn3cc(C4CC4)nn3)ccn2)c2cncnc21 [Example 30, 2-(4-cyclopropyl-1H-1,2,3-triazol-1-yl)-N-[2-({7-[(2S)-1-hydroxypropan-2-yl]-7H-pyrrolo[2,3-d]pyrimidin-5-yl}carbonyl)pyridin-4-yl]acetamide] |
| 7.14 | CC1(n2cc(C(=O)c3cc(NC(=O)Cc4ccc(C(F)(F)F)cc4)ccn3)c3cncnc32)COC1 [Example 167, N-(2-{[7-(3-methyloxetan-3-yl)-7H-pyrrolo[2,3-d]pyrimidin-5-yl]carbonyl}pyridin-4-yl)-2-[4-(trifluoromethyl)phenyl]acetamide] |
| 7.14 | CC(CO)(CO)n1cc(C(=O)c2cc(NC(=O)Cn3ccc(C(F)(F)F)n3)ccn2)c2cncnc21 [Example 105, N-(2-{[7-(1,3-dihydroxy-2-methylpropan-2-yl)-7H-pyrrolo[2,3-d]pyrimidin-5-yl]carbonyl}pyridin-4-yl)-2-[3-(trifluoromethyl)-1H-pyrazol-1-yl]acetamide] |
| 7.29 | CC(C)n1cc(C(=O)c2ccnc(NC(=O)Cc3ccc(C#N)cc3)c2)c2cncnc21 [Example 68, 2-(4-cyanophenyl)-N-(4-{[7-(propan-2-yl)-7H-pyrrolo[2,3-d]pyrimidin-5-yl]carbonyl}pyridin-2-yl)acetamide] |
| 7.31 | CC(C)n1cc(C(=O)c2ccnc(NC(=O)Cc3ccc(C#N)c(C(F)(F)F)c3)c2)c2cncnc21 [Example 71, 2-[4-cyano-3-(trifluoromethyl)phenyl]-N-(4-{[7-(propan-2-yl)-7H-pyrrolo[2,3-d]pyrimidin-5-yl]carbonyl}pyridin-2-yl)acetamide] |
| 7.38 | CC(C)n1cc(C(=O)c2ccnc(NC(=O)Cc3ccc(F)cc3)c2)c2cncnc21 [Example 153, 2-(4-fluorophenyl)-N-(4-{[7-(propan-2-yl)-7H-pyrrolo[2,3-d]pyrimidin-5-yl]carbonyl}pyridin-2-yl)acetamide] |
| 7.51 | O=C(Cc1ccc(Cl)c(Cl)c1)Nc1cc(C(=O)c2cn(CCO)c3ncncc23)ccn1 [Example 138, 2-(3,4-dichlorophenyl)-N-(4-{[7-(2-hydroxyethyl)-7H-pyrrolo[2,3-d]pyrimidin-5-yl]carbonyl}pyridin-2-yl)acetamide] |
| 7.67 | Cc1cc(C(C)C)nn1CC(=O)Nc1cc(C(=O)c2cn(C(C)C)c3ncncc23)ccn1 [Example 151, 2-[5-methyl-3-(propan-2-yl)-1H-pyrazol-1-yl]-N-(4-{[7-(propan-2-yl)-7H-pyrrolo[2,3-d]pyrimidin-5-yl]carbonyl}pyridin-2-yl)acetamide] |
| 7.87 | CC(CO)(CO)n1cc(C(=O)c2cc(NC(=O)Cc3ccc(C(F)(F)F)cc3)ccn2)c2cncnc21 [Example 103, N-(2-{[7-(1,3-dihydroxy-2-methylpropan-2-yl)-7H-pyrrolo[2,3-d]pyrimidin-5-yl]carbonyl}pyridin-4-yl)-2-[4-(trifluoromethyl)phenyl]acetamide] |
| 7.89 | CC(C)(CO)n1cc(C(=O)c2cc(NC(=O)Cc3ccc(C(F)(F)F)cc3)ccn2)c2cncnc21 [Example 55, N-(2-{[7-(1-hydroxy-2-methylpropan-2-yl)-7H-pyrrolo[2,3-d]pyrimidin-5-yl]carbonyl}pyridin-4-yl)-2-[4-(trifluoromethyl)phenyl]acetamide] |
| 7.96 | Cc1cc(C(F)(F)F)nn1CC(=O)Nc1cc(C(=O)c2cn(C(C)C)c3ncncc23)ccc1C#N [Example 35, N-(2-cyano-5-{[7-(propan-2-yl)-7H-pyrrolo[2,3-d]pyrimidin-5-yl]carbonyl}phenyl)-2-[5-methyl-3-(trifluoromethyl)-1H-pyrazol-1-yl]acetamide] |
| 8.08 | CC(C)(C)n1cc(C(=O)c2cc(NC(=O)Cn3ccc(C4CC4)n3)ccn2)c2cncnc21 [Example 40, N-{2-[(7-tert-butyl-7H-pyrrolo[2,3-d]pyrimidin-5-yl)carbonyl]pyridin-4-yl}-2-(3-cyclopropyl-1H-pyrazol-1-yl)acetamide] |
| 8.08 | Cc1cc(C(F)(F)F)nn1CC(=O)Nc1ccnc(C(=O)c2cn(C(C)(C)CO)c3ncncc23)c1 [Example 60, N-(2-{[7-(1-hydroxy-2-methylpropan-2-yl)-7H-pyrrolo[2,3-d]pyrimidin-5-yl]carbonyl}pyridin-4-yl)-2-[5-methyl-3-(trifluoromethyl)-1H-pyrazol-1-yl]acetamide] |
